Experimental findings from US9090897B2, “Production of IFN-lambda by conventional dendritic cells” (Bavarian Nordic A/S, priority 2009, dated 2015) are described below.

One assay relates to FLDC-derived eCD8+ cDCs. Briefly: In vitro stimulation of sorted FLDC-derived eCD8+ cDCs, IFN-λ ELISA. The assay is classed as cell-based, mouse. How it is done:
FL bone marrow culture derived dendritic cells (FLDC) were prepared as described (Hochrein et al., 2004). pDCs and eCD8+ and eCD8^− cDC subsets were sorted based on the expression of CD11c, CD45R, CD11b, CD24, and CD172a or CD103 (all BD Biosciences).
Cells were stimulated in vitro with single TLR agonists or combinations thereof containing 10 μg/ml Pam3Cys (InvivoGen), 100 μg/ml poly IC (Axxora), 10 μg/ml LPS (E. coli; Sigma-Aldrich or Axxora), 10 μg/ml R848 (Axxora), 1 μM CpG-1668 or CpG-2216 (TIB-Molbiol), 1 μg/ml profilin of toxoplasma (Axxora). The recombinant cytokines mouse-IL-3, mouse-IL-4, rat-IFN-γ (PeproTech) and mouse-GM-CSF (Tebu-Bio) (10 ng/ml each) were added as indicated. The addition of IL-3 and GM-CSF was based on previous observations that GM-CSF promoted the production of IL-12p70 and that the combination of IL-3 and GM-CSF increased virus induced IFN-λ production in pDCs and cDCs (Hochrein et al., 2000; Hochrein et al., 2004). As source of a parapoxvirus Zylexis, which is used for veterinary purposes was purchased from a pharmacy. HSV-1, in replication deficient form known as disc HSV-1 (HSV-1d) was used as described (Hochrein et al., 2004). IFN-λ in supernatants was analyzed by ELISA and IL-12p70 was determined by FlowCytomix bead assay (Bender Medsystems) according to manufacturer's protocol.

The next assay has as its system eCD8α cDCs. Briefly: In vitro stimulation of FL expanded ex-vivo isolated splenic eCD8α cDCs, IFN-λ. The assay is classed as cell-based, mouse. Conditions: 5×10^5/ml, IL-3+GM-CSF+IL-4+IFN-γ, 100 μg/ml, 18 h. How it is done:
(§1) FIG. 13 depicts that in vivo FL expanded CD8α+cDCs and eCD8α cDCs selectively produce IFN-λ to poly AU in vitro. Highly purified FL expanded ex-vivo isolated splenic 5×10^5/ml were stimulated in the presence of IL-3+GM-CSF+IL-4+IFN-γ with either poly IC (100 μg/ml) or poly AU (100 μg/ml). After 18 h supernatants were analyzed for IFN-λ.
(§2) To see if the IFN-λ production to poly AU seen in vivo would correspond with the same cells as in response to poly IC we enhanced the amount of DC in mice with FL treatment and sorted CD8α+ cDCs, eCD8α cDCs and CD11b+/CD172a+cDCs. Those cells were stimulated with poly IC or poly AU.

For another assay, the system named is mice. Briefly: In vivo challenge (i.v.), serum IFN-λ and IFN-α by ELISA. Further details: species or system mouse. Conditions: 100 μg i.v. How it is done:
Mice were injected i.v. into the lateral tail vein with 100 μg poly IC (Axxora) and serum was collected 3-4 h after challenge. Sera were pre-diluted 1/5, […] was analyzed by ELISA as described (Hochrein et al., 2004). IFN-λ was determined by an IFN-λ3 (IL-28B) ELISA (R&D Systems).
For orientation: ELISA stands for enzyme-linked immunosorbent assay.

The next assay relates to CD8α+ cDCs. Briefly: In vitro stimulation of FL expanded ex-vivo isolated splenic CD8α+ cDCs, IFN-λ. The assay is classed as cell-based, mouse. Conditions: 5×10^5/ml, IL-3+GM-CSF+IL-4+IFN-γ, 100 μg/ml, 18 h. How it is done: as §1, §2

“Also recorded” adds a separate entry of the source.

On to “Polyinosinic:polycytidylic acid [poly IC]”, for which the IFN-λ production result is listed as “produced IFN-λ” in the assay with FLDC-derived eCD8+ cDCs (WT eCD8+ cDCs, 18 h); “able to produce IFN-λ” with eCD8α cDCs; “able to produce IFN-λ” in the assay on CD8α+ cDCs. For the same substance, the “IFN-λ production, dependence on Cardif, MyD88, TLR3” value in the assay with FLDC-derived eCD8+ cDCs (eCD8+ cDCs generated from Cardif-, MyD88- or TLR3-KO mice) was “involvement of TLR3 but not Cardif or MyD88”. Also, the “serum IFN-λ, dependence on hematopoietic cells, FL and IRF8” value with mice (BM reconstituted, IL-15R-KO, RAG1-KO, FL-KO, IRF8-KO vs WT mice (FIG. 16), 3-4 h) is “depends on hematopoietic cells, FL and IRF8”. Moreover, the “Serum levels of IFN-λ” value is reported as “almost abrogated” in the assay on mice (FL-KO mice, 3-4 h) and “easily detectable; also recorded: Large amounts” in the assay with mice (WT mice, sera after 3-4 h). Also, the “serum IFN-λ” value is listed as “largely reduced” with mice (IRF7-KO mice, 3-4 h) and “abrogated IFN-λ production” in the assay with mice (TLR3-KO mice, 3-4 h). In addition, the “serum IFN-λ, dependence on IRF3 and IRF7” value in the assay with mice (mice of indicated genotype (FIG. 15), 3-4 h) is “depends on IRF3 and IRF7”.
